According to US8460712B2, “Prolonged release formulations comprising an 2-oxo-1-pyrrolidine derivate” (UCB Pharma, S.A., priority 2008, dated 2013):

Legend:
rat hippocampal slices [1] = assay: epileptiform responses in hippocampal slices induced by high-K+/low-Ca2+ fluid (HKLCF); type: cell-based, Sprague-Dawley rats; design: rate of spontaneous field bursting: dose or concentration left out as unconfirmed; details: for evoked epileptiform responses (PS1 amplitude, repetitive PSs per evoked burst): CA3 area, fimbrial stimulation, HKLCF perfusion; for rate of spontaneous field bursting: HKLCF
Procedure: The effect of brivaracetam on epileptiform responses induced by high-K+/low-Ca2+ concentrations or by bicuculline was examined in transverse hippocampal slices prepared from Sprague-Dawley rats according to previously reported standard procedures. The epileptiform responses were induced by passing from a normal perfusion of artificial cerebrospinal fluid (ACSF) (K+ 3 mM; Ca2+ 2.4 mM) to either high-K+/low-Ca2+ fluid (HKLCF) (K+ 7.5 mM; Ca2+ 0.5 mM) or to 5 M bicuculline methiodide (BMI)-containing ACSF.
Extracellular field potentials (FPs) were recorded in the CA3 area of the slices with 2 M NaCl-filled glass microelectrodes. The evoked FPs were recorded at 10-min intervals in response to fimbrial stimulation with constant current rectangular pulses that elicit a single population spike (PS) of 50-75% of the maximal amplitude when the slice is in ACSF. In the HKLCF model, 2 min of spontaneous activity were also recorded, in the middle of each 10-min interval between the recordings of evoked responses.
Either brivaracetam or levetiracetam was added to the bathing fluid of the slices 20 min before shifting from ACSF to either HKLCF or […] BMI-containing ACSF, and was kept in the perfusion fluid throughout the experiment.

[2] = system: fully amygdala-kindled rats; assay: fully amygdala-kindled rats; type: in vivo; details: for dose from which significant suppression in motor-seizure severity was induced: rat, in vivo
[3] = system: genetically sound-sensitive male mice; assay: audiogenic seizures in mice; type: in vivo; details: acoustic stimulus 90 dB, 30 s; brivaracetam i.p. 30 min, levetiracetam i.p. 60 min before
Procedure: Audiogenic seizures in mice: Genetically sound-sensitive male mice (16-28 g; n=10 per group), responding with wild running, clonic and tonic convulsions to an acoustic stimulation, were used. Audiogenic seizures were induced by an acoustic stimulus (90 dB, 10-20 kHz) applied for 30 s. The mice were pretreated with either saline, brivaracetam (i.p., 30 min) or levetiracetam (i.p., 60 min), and the proportion of mice protected against clonic convulsions was used as the end point to assess anticonvulsant activity.

mice [4] = assay: chemically induced seizures in mice (pentylenetetrazol); type: in vivo; details: i.p. 30 min before seizure induction; pentylenetetrazol 83 mg kg-1 s.c.; higher ED50 than audiogenic
Procedure: The dose was selected based on dose-effect curves in saline-treated animals as the convulsive dose inducing clonic convulsions of all four extremities in 97% of the animals. Immediately after administration of the chemoconvulsant, the mice were placed individually in small plastic cages (25 13 8 cm) and observed for the presence of clonic convulsions in all four extremities, for 60 min. The occurrence of tonic convulsions (hindlimb extension) and mortality was also recorded during this interval. The proportion of mice protected against clonic convulsions was calculated and used as the end point for anticonvulsant activity.

mice [5] = assay: maximal electroshock in mice; type: in vivo; details: i.p. 30 min before seizure induction; higher ED50 than audiogenic
GAERS rats = assay: spontaneous SWDs in GAERS rats; type: in vivo; details: for dose from which spontaneous SWDs were significantly suppressed: rat, in vivo
mice [6] = assay: corneal kindling of mice; type: in vivo; details: continued corneal stimulations after termination of treatment; group previously treated with the highest dose
rat hippocampal slices [7] = details: background statement; cited from earlier work
rat hippocampal slices [8] = details: background statement; cited from earlier work; remark: listed apart in the source

| SMILES | evoked epileptiform responses (PS1 amplitude, repetitive PSs per evoked burst) (rat hippocampal slices [1]) | rate of spontaneous field bursting (rat hippocampal slices [1]) | after-discharge duration ([2]; highest dose tested, 212.3 mg kg-1) | dose from which significant suppression in motor-seizure severity was induced [2] [mg/kg] | protection against the expression of clonic convulsions [3] | protection against clonic convulsions induced by pentylenetetrazol (mice [4]) | protection against tonic hindlimb extension induced by a maximal electroshock (mice [5]) | inhibition of spontaneous SWDs (GAERS rats; highest dose tested, 67.9 mg kg-1) | dose from which spontaneous SWDs were significantly suppressed (GAERS rats) [mg/kg] | incidence of generalized motor seizures (mice [6]) | solubility (water solubility) [mg/mL] | after-discharge duration ([2]; up to 1700 mg kg-1) | epileptiform responses induced by high-K+/low-Ca2+ concentrations (rat hippocampal slices [7]) | epileptiform responses induced by bicuculline (rat hippocampal slices [8]) |
| --- | --- | --- | --- | --- | --- | --- | --- | --- | --- | --- | --- | --- | --- | --- |
| CCC[C@@H]1CC(=O)N([C@@H](CC)C(N)=O)C1 [Brivaracetam, (2S)-2-[(4R)-2-oxo-4-propyl-pyrrolidin-1-yl] butanamide] | reduced | reduced | significantly reduced | ≥ 21.2 | protected | protected | protected | complete inhibition | ≥ 2.1 | persistent reduction | > 500 |  |  |  |
| CC[C@@H](C(N)=O)N1CCCC1=O [Levetiracetam, (S)-(−)-alpha-ethyl-2-oxo-1-pyrrolidine acetamide] | reduced | not |  | ≥ 170 | protected |  |  |  | ≥ 5.4 |  |  | inactive | reduces | reduces |
| CC[C@@H](C(N)=O)N1C[C@H](C=C(F)F)CC1=O [Seletracetam, (2S)-2-[(4S)-4-(2,2-difluorovinyl)-2-oxo-pyrrolidin-1-yl]butanamide] |  |  |  |  |  |  |  |  |  |  | > 500 |  |  |  |
